Reference: patent US20130324542A1, “[1,2,4]TRIAZOLO[4,3-B][1,2,4]TRIAZINE COMPOUNDS, PREPARATION METHOD AND USE THEREOF” (SHANGHAI INSTITUTE OF MATERIA MEDICA, CHINESE ACADEMY OF …, priority 2010, published 2013)

Experiments:
[1] = test system: Human Glioblastoma Cells U-87MG Xenograft; assay: Tumor growth in human glioblastoma U-87MG xenograft model of nude mice; format: in vivo; details: for tumor growth inhibition (TGI): 17 days, end of treatment
Description: The treatment group was administered intraperitoneally and daily with compound I-19 at various concentrations (50 mg/kg, 100 mg/kg) respectively.
The length (A) and width (B) of the tumor in mice were measured twice a week and tumor volume was calculated thereby as: V=A×B^2/2. Provided that Vt was the tumor volume measured at a given time point and V0 was the tumor volume measured before the mice were grouped and administered, tumor growth inhibition (TGI) was calculated as: […]

[2] = Body weight and death of nude mice bearing U-87MG (toxicity and side effect)
Description: LI-87MG Cells were inoculated subcutaneously in right axillary fossa of nude mice with 5×10^6 cells per mouse. After the xenografted tumor was formed, it was passed three generations in nude mice and then used. Tumor tissue in productive phase was cut into nubs of about 1.5 mm^3 and inoculated subcutaneously in right axillary fossa of the nude mice in a sterile condition. The diameters of the xenografted tumors were measured by a vernier caliper. […] The administration was performed once daily and lasted for 17 days. At the same time, the negative group was administered with equivalent physiological saline.
wherein, CVt was tumor volume in control group measured at a given time point, CV0 was tumor volume in control group measured before grouping and treatment, TVt was tumor volume in treatment group measured at a given time point, and TV0 was tumor volume in treatment group measured before grouping and treatment. The significant differences between the treated and control groups were evaluated using t-test. At the same time, body weight of nude mice in each group was measured twice a week to preliminarily evaluate the toxicity and side effect of compound.

[3] = test system: NIH3T3 background cells; assay: Cell proliferation, SRB assay, NIH3T3 background cells as control; format: cell-based; details: Mus musculus, NIH3T3, 72 h, read-out: inhibition rate (%) on proliferation of NIH3T3 background cells
Description: NIH3T3/TPR-Met cells in the logarithmic growth phase and NIH3T3 background cells were seeded in a 96-well microcuture plate at 90111_, per well and cultivated overnight, followed by addition of 104 of the compound at different concentrations. Three concentrations were set, and for each concentration, the test was carried out in triplicate wells. 72 h later, the culture medium was removed. The residue was fixed by precooled 10% TCA at 4° C. for 1 h, washed by distilled water for 5 times and dried at room temperature. After that, 4 mg/mL of sulforodamine B (SRB) in 1% glacial acetic acid was added to each well (1004 per well) for staining at room temperature for 15 min. The excess dye was removed by washed with 1% glacial acetic acid for 5 times and dried in air. At last, 150 μL of Tris-HCL solution (10 mM Tris, pH 10.0) was added to each well. OD values were measured on a multi-well spectrophotometer at […].

[4] = test system: NIH3T3/TPR-Met cells; assay: Cell proliferation mediated by c-Met, SRB assay, NIH3T3/TPR-Met cells; format: cell-based; details: Mus musculus, NIH3T3, 72 h, read-out: inhibition rate (%) on proliferation of NIH3T3/TPR-Met cells
Description: Three concentrations were set, and for each concentration, the test was carried out in triplicate wells. 72 h later, the culture medium was removed. The residue was fixed by precooled 10% TCA at 4° C. for 1 h, washed by distilled water for 5 times and dried at room temperature. […] The excess dye was removed by washed with 1% glacial acetic acid for 5 times and dried in air. At last, 150 μL of Tris-HCL solution (10 mM Tris, pH 10.0) was added to each well.

[5] = molecular target: c-Met tyrosine kinase (Homo sapiens, UniProt P08581); assay: c-Met kinase activity on molecular level (ELISA, Poly(Glu,Tyr)4:1 substrate); format: biochemical; details: ATP 5 μM, 37° C., 1 h
Sequence of c-Met tyrosine kinase (P08581 25-1390): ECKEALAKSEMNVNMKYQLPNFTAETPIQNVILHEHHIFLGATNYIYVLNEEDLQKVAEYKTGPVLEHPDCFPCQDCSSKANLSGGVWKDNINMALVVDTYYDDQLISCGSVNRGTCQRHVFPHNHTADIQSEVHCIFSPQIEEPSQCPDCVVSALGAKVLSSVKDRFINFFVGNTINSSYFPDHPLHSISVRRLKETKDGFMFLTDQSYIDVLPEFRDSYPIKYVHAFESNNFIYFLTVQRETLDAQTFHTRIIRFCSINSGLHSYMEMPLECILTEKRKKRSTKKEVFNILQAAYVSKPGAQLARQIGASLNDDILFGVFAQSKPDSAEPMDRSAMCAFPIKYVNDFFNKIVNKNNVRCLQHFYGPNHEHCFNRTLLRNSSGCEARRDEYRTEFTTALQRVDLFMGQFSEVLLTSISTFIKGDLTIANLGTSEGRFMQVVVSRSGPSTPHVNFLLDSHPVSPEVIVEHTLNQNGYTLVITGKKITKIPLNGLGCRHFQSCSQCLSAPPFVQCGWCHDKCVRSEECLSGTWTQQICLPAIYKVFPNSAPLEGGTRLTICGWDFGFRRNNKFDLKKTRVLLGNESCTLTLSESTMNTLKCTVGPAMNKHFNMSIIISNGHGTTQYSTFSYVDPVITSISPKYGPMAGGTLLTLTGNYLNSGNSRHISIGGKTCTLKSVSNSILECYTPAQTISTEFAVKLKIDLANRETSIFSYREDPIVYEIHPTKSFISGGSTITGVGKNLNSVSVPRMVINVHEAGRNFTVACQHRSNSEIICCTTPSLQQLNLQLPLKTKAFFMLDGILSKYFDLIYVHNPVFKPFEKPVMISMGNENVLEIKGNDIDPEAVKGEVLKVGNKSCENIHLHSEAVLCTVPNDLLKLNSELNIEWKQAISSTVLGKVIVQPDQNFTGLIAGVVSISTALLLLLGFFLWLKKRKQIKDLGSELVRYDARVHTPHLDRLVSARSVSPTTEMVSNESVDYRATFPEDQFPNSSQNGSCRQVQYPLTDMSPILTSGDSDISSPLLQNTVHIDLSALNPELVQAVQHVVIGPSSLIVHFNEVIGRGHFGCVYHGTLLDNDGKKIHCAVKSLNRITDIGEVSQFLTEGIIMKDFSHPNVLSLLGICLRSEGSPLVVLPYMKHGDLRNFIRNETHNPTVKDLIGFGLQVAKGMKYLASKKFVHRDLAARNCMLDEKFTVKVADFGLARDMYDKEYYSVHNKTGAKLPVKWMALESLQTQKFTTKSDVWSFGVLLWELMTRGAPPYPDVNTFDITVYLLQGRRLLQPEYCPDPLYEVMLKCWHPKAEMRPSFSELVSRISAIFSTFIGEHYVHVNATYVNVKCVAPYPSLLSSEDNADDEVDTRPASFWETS
Description: Poly(Glu, Tyr)4:1 as an enzyme substrate was diluted by potassium ion-free PBS (10 mM, sodium phosphate buffer, 150 mM NaCl, pH7.2-7.4) into a solution of 20 μg/ml. […] After the liquid in wells was removed, the plate was washed three time by T-PBS (PBS solution containing 0.1% Tween-20) at 200 μl/well, 5 min for each time. The ELISA plate was then dried in an oven at 37° C. for 1-2 h.
Each well was added with 50 μL of ATP solution diluted by reaction buffer (50 mM HEPES pH 7.4, 50 mM MgCl2, 0.5 mM MnCl2, 0.2 mM Na3VO4, 1 mM DTT) at a final concentration of 5 μM. Compound diluted by 1% DMSO into a suitable concentration was added at 10 μl/well and then c-Met tyrosine kinase protein diluted by 40 μl of reaction buffer was added. The plate was placed on a shaking table (100 rpm) at 37° C. and incubated for 1 h, and then washed three times by T-PBS. For each assay, triplicate wells without enzyme were used as blank control and wells having the corresponding DMSO concentration without compound were used as negative control. Primary antibody PY99 (p-Tyr (PY99), Cell Signaling Technology, 1:1000 diluted in 5 mg/mL BSA T-PBS) was added at 100 μl/well. The plate was then placed on a shaking table at 37° C. and incubated for 0.5 h, and washed by T-PBS. Secondary antibody horseradish peroxidase-conjugated goat anti-mouse IgG (1:2000 diluted in 5 mg/mL BSA T-PBS) was added at 100 μl/well. The plate was then placed on a shaking table at 37° C. for 0.5 h and washed three times by T-PBS. 2 mg/mL of OPD developer (diluted by a 0.1M citric acid-sodium citrate buffer (pH=5.4) containing 0.03% of H2O2) was added at 100 μl/well, and the plate was kept in dark at 25° C. for 1-10 min. OPD was ultrasonically dissolved and the developer solution was prepared just before use. 2 M of H2SO4 was added at 50 μl/well to stop the reaction. The plate was read using a wavelength regulated multi-well spectrophotometer (SPECTRA MAX 190) at 490 nm.
The inhibition rate was calculated according to the following equation:
Inhibition rate (%)=(1−(ODcompound−ODblank)/(ODnegative−ODblank))×100%
IC50 value was calculated through a four-parameter fit according to the inhibition curve.

[6] = 100 mg/kg intraperitoneally once daily

IC50 [5] [nM]	Compound	tumor growth inhibition (TGI) ([1]; 50 mg/kg intraperitoneally once daily) [%]	tumor growth inhibition (TGI) [1, 6] [%]	inhibitory action on the growth of transplanted tumor ([1]; at each administration dose (50, 100 mg/kg i.p. daily))	death of mice [2, 6]	weight loss of nude mice ([2]; 50 and 100 mg/kg intraperitoneally once daily, 17 days)	inhibition at 1 µM [3] [%]	inhibition at 10 µM [3] [%]	inhibition at 50 µM [3] [%]	inhibition at 1 µM [4] [%]	inhibition at 50 µM [4] [%]	inhibition at 10 µM [4] [%]
	Cn1cc(-c2cnc3nnc(C(F)(F)c4ccc5ncccc5c4)n3n2)cn1 [Compound I-19, 3-[(6-quinolyl)difluoromethyl]-6-[(1-methyl)-4-pyrazolyl]-[1,2,4]triazolo[4,3-b][1,2,4]triazine]	83.9	95.3	significantly inhibitory action	one mouse died on the 9th day	No mouse in I-19 or JNJ-38877605 treated group show obvious weight loss						
0.3	COc1cc2nccc(OCc3nnc4ncc(-c5ccc(OCc6ccccc6)cc5)nn34)c2cc1OC [II-19, 3-[(6,7-dimethoxy-4-quinolyl)oxymethyl]-6-(4-benzyloxyphenyl)-[1,2,4]triazolo[4,3-b][1,2,4] triazine]						24.9	31.1	83.4	6.55	97	
0.7	COc1ccc2c(OCc3nnc4ncc(-c5ccc(Cl)c(Cl)c5)nn34)ccnc2c1 [II-20, 3-[(7-methoxy-4-quinolyl)oxymethyl]-6-(3,4-dichlorophenyl)-[1,2,4]triazolo[4,3-b][1,2,4] triazine]						10.4	22.5	21.4	78.7	86.7	89.4
0.81	Fc1ccc(-c2cnc3nnc(COc4ccnc5ccccc45)n3n2)cc1 [II-21, 3-(4-quinolyloymethyl)-6-(4-fluorophenyl)-[1,2,4]triazolo[4,3-b][1,2,4]triazine]						28.9	53.9	57.5	24.6	84.3	81.4
0.7	c1ccc(-c2cnc3nnc(COc4ccnc5ccccc45)n3n2)cc1 [II-22, 3-(4-quinolyloxymethyl)-6-phenyl-[1,2,4] triazolo[4,3-b][1,2,4]triazine]						38.6	53.8	48.1	63.9	78.8	81.7
0.88	COc1ccc(-c2cnc3nnc(COc4ccnc5ccccc45)n3n2)cc1 [II-23, 3-(4-quinolyloxymethyl)-6-(4-methoxyphenyl)-[1,2,4]triazolo[4,3-b][1,2,4]triazine]						22.8	49.8	31.3	29	88.5	83.2
0.78	Oc1ccc(-c2cnc3nnc(COc4ccnc5ccccc45)n3n2)cc1 [II-24, 3-(4-quinolyloxymethyl)-6-(4-hydroxyphenyl)-[1,2,4]triazolo[4,3-b][1,2,4]triazine]						17.1	25.1	28.4	5.3	70.6	53.1
1	COc1cccc(-c2cnc3nnc(COc4ccnc5ccccc45)n3n2)c1 [II-26, 3-(4-quinolyloxymethyl)-6-(3-methoxyphenyl)-[1,2,4]triazolo[4,3-b][1,2,4]triazine]						36.8	58.7	62.2	20.9	83.9	82.7
0.88	Oc1cccc(-c2cnc3nnc(COc4ccnc5ccccc45)n3n2)c1 [II-27, 3-(4-quinolyloxymethyl)-6-(3-hydroxyphenyl)-[1,2,4]triazolo[4,3-b][1,2,4]triazine]						18.3	37.7	46	9.2	80.7	72.6
2.4	COc1ccc2c(OCc3nnc4ncc(-c5cnn(C)c5)nn34)ccnc2c1 [II-29, 3-[(7-methoxy-4-quinolyl)oxymethyl]-6-[(1-methyl)-4-pyrazolo]-[1,2,4]triazolo[4,3-b][1,2,4] triazine]						31.8	32.9	50.9	87.4	91.9	88.2
7.9	Cc1[nH]c(/C=C2\C(=O)Nc3ccc(S(=O)(=O)N(C)c4cccc(Cl)c4)cc32)c(C)c1C(=O)N1CCN(C)CC1 [SU11274, reference compound]						19.9	44.2	70.6	8.5	88.7	80.1
